Test results taken from US20040034026A1, “Combination comprising an agent decreasing vegf activity and an agent decreasing egf activity” (priority 2000, published 2004).

How the values were obtained:
[1] = system: DU145 prostate carcinoma human cell lines; assay: DU145 prostate carcinoma human cell lines grown i.d. in nude mice; assay type: in vivo
Protocol: DU145 Prostate Carcinoma Human Cell Lines Grown i.d. in Nude Mice
DU145 prostate carcinoma human cell lines are grown i.d. in nude mice. Tumor cell (10^6) are injected intradermally (i.d.) on the left and right flank of nude mice. Treatment with compounds is started after 25-32 days when tumors reach a size of 80-100 mm^2. At this time animals are sorted into groups with equivalent mean and range of tumor sizes. Treatment is then randomized to the different groups. Tumor size is measured with calipers on a weekly basis.
After 4 weeks of treatment, 50 mg/kg po/day of PTK787 (active ingredient 1) reduces the tumor growth by 74%. 50 mg/kg po/day of the selective EGF receptor tyrosine kinase inhibitor as described in Example 1 of WO 96/33980 (active ingredient 2) reduces tumor growth by 91%. The maximum effects of either agent given alone in this model is stable disease. Simultaneous treatment with both active ingredients (50 mg/kg po/day of each active ingredient) results in tumor regression (25% reduction compared to intial tumor weight).
After 2 weeks of treatment, 50 mg/kg po/day of PTK787 (active ingredient 1) reduces the tumor growth by 41%. 50 mg/kg po/day of the selective EGF receptor tyrosine kinase inhibitor PKI166 reduces tumor growth by 44%. Simultaneous treatment with both active ingredients (50 mg/kg po/day of each active ingredient) reduces the tumor growth by 74%.

[2] = system: NeuT transfected HC11 mouse mammary epithelial cells (breast tumors); assay: Mouse breast carcinoma induced by transfection of breast epithelial cells with NeuT (transgenic organ tumor model); assay type: in vivo; details: female BALB/c mice, 100 mg/kg of each active ingredient once per day; fraction of tumors
Protocol: Treatment of Mouse Breast Carcinoma Induced by Transfection of Breast Epithelial Cells with NeuT (Transgenic Organ Tumor Model)
The dual treatment with PTK787 in the form of its succinate salt (active ingredient 1, Example 62 of WO 98/35958) and an EGF receptor tyrosine inhibitor of formula IV wherein q′ is 1, n′ is 0, R^E1 is hydrogen, R^E2 is 3-acetylamino phenyl and R^E6 is methyl (active ingredient 2, Example 22e of WO 97/02266) is performed on a genetically engineered tumor model, which uses “transgenic” organs in normal mice. NeuT (the point mutated rat homolog of erbB-2) transfected HC11 epithelial mouse mammary epithelial cells are transplanted into the gland-free mammary fat pad (cleared fat-pad) of the fourth mammary gland of female BALB/c mice according to an established method (DeOme, Faulkin, et al., Cancer Res. 19: 515-520, 1959). Within 4 to 6 weeks, the transplanted oncogene-transfected mammary epithelial cells develop breast tumors. Tumors are focal and heterogeneous in morphology, and oncogene and other molecular marker expression. Tumors grow rapidly and most of the animals develop breast tumors bilaterally after transplantation. The animals are allocated randomly to three different treatment groups. A first group is treated with 100 mg/kg of active ingredient 1 dosed once per day alone; a second group is treated with 100 mg/kg of active ingredient 2 dosed once per day alone; and a third group is treated with the combination of both active ingredients dosed with 100 mg/kg once per day. […]

[3] = 50 mg/kg po/day, after 4 weeks of treatment
[4] = 50 mg/kg po/day of each active ingredient, after 2 weeks of treatment

Structure (SMILES)	reduction of tumor growth [1, 3] [%]	reduction of tumor growth [1, 4] [%]	tumors with regression [2] [%]	tumors with stable disease [2] [%]	tumors without response to the treatment [2] [%]
COc1cc2ncnc(Nc3ccc(F)c(Cl)c3)c2cc1OCCCN1CCOCC1 [Example 1 of WO 96/33980, reference compound]	91				
C[C@@H](Nc1ncnc2[nH]c(-c3ccc(O)cc3)cc12)c1ccccc1 [PKI166]		44			
Clc1ccc(Nc2nnc(Cc3ccncc3)c3ccccc23)cc1 [PTK787]	74	41	7	21	78
